Experimental data from ChEMBL document CHEMBL4270670 (J Med Chem, 2018).

What was measured:
in vitro [1] = conditions: chicken, chicken embryo fibroblasts
Influenza B virus = conditions: mdck
in vitro [2] = conditions: dog, MDCK cells
Influenza A virus [3] = assay: microbe, parasite or virus in culture; conditions: MDCK, 48 h
Influenza A virus [4] = assay: microbe, parasite or virus in culture; conditions: A/Puerto Rico/8/1934(H1N1), MDCK, 48 h
Rattus norvegicus [5] = assay: Half life in Sprague-Dawley rat at 20 mg/kg, po by LC-MS analysis; assay type: ADME, organism-based; conditions: in vivo
Rattus norvegicus [6] = assay: Tmax in Sprague-Dawley rat at 20 mg/kg, po by LC-MS analysis; assay type: ADME, organism-based; conditions: in vivo
Rattus norvegicus [7] = organism: Rattus norvegicus; conditions: in vivo, po, 20 mg/kg
Rattus norvegicus [8] = assay: Cmax in Sprague-Dawley rat at 20 mg/kg, po by LC-MS analysis; assay type: ADME, organism-based; set-up: dose 20 mg/kg, route oral; conditions: in vivo
in vivo = conditions: Sprague-Dawley, rat, po, 20 mg/kg
[9] = Oral bioavailability in Sprague-Dawley rat at 20 mg/kg by LC-MS analysis; assay type: ADME, organism-based; conditions: in vivo
[10] = MRT (0 to infinity) in Sprague-Dawley rat at 20 mg/kg, po by LC-MS analysis; assay type: ADME, organism-based; conditions: in vivo

Q: Which CC50 at 48 h (in vitro [1]) does the source give for CCC(CC)O[C@@H]1C=C(C(=O)O)C[C@H](NCc2ccc(-c3ccc4sccc4c3)cc2)[C@H]1NC(C)=O here?
A: > 200 µM

Q: For CCC(CC)O[C@@H]1C=C(C(=O)O)C[C@H](NCc2ccc(Sc3cccs3)cc2)[C@H]1NC(C)=O, which EC50 (Influenza B virus) is on record?
A: 8.5 µM

Q: What about the CC50 at 48 h (in vitro [2]) of the same molecule?
A: > 250 µM

Q: What about the CC50 at 48 h (in vitro [1]) of the same molecule?
A: > 200 µM

Q: And the EC50 (Influenza A virus [3])?
A: 79 µM

Q: What about the EC50 (Influenza A virus [4]) of the same molecule?
A: 0.04 µM

Q: With CCC(CC)O[C@@H]1C=C(C(=O)O)C[C@H](NCc2ccc(OC(C)C)cc2)[C@H]1NC(C)=O as the molecule, how does the CC50 at 48 h (in vitro [1]) read?
A: > 200 µM

Q: Which CC50 at 48 h (in vitro [1]) does the source give for CCC(CC)O[C@@H]1C=C(C(=O)O)C[C@H](NCc2cccc(-c3ccc(SC)cc3)c2)[C@H]1NC(C)=O here?
A: > 200 µM

Q: Which CC50 at 48 h (in vitro [1]) does the source give for CCC(CC)O[C@@H]1C=C(C(=O)O)C[C@H](NCc2ccc(Cc3ccccc3)cc2)[C@H]1NC(C)=O here?
A: > 200 µM

Q: What does the source list for CCOC(=O)C1=C[C@@H](OC(CC)CC)[C@H](NC(C)=O)[C@@H](NCc2ccc(Sc3ccccc3)cc2)C1?
A: t1/2 (Rattus norvegicus [5]): 8.68 h; Tmax (Rattus norvegicus [6]): 0.57 h; AUC (Rattus norvegicus [7]): 1594.62 ng·h/mL; Cmax (Rattus norvegicus [8]): 445.6 µg/mL; AUC(0-t) (in vivo): 1040 ng·h/mL; bioavailability [9]: 7.1%; MRT inf [10]: 17.1 h

Q: For CCC(CC)O[C@@H]1C=C(C(=O)O)C[C@H](NCc2cccc(SC(C)CC)c2)[C@H]1NC(C)=O (stereo partly drawn), which CC50 at 48 h (in vitro [1]) is on record?
A: > 200 µM

Q: With CCC(CC)O[C@@H]1C=C(C(=O)O)C[C@H](NCc2cccc(OC)c2)[C@H]1NC(C)=O as the molecule, how does the CC50 at 48 h (in vitro [1]) read?
A: > 200 µM

Q: For CCC(CC)O[C@@H]1C=C(C(=O)O)C[C@H](NCc2cccc(SC3CCCC3)c2)[C@H]1NC(C)=O, which CC50 at 48 h (in vitro [1]) is on record?
A: > 200 µM

Q: With CCC(CC)O[C@@H]1C=C(C(=O)O)C[C@H](NCc2ccc(Oc3ccccc3)cc2)[C@H]1NC(C)=O as the molecule, how does the CC50 at 48 h (in vitro [1]) read?
A: > 200 µM

Q: Which CC50 at 48 h (in vitro [1]) does the source give for CCC(CC)O[C@@H]1C=C(C(=O)O)C[C@H](NCc2ccc(C(=O)c3ccccc3)cc2)[C@H]1NC(C)=O here?
A: > 200 µM

Q: With CCC(CC)O[C@@H]1C=C(C(=O)O)C[C@H](NCc2ccc(-c3cc4ccccc4s3)cc2)[C@H]1NC(C)=O as the molecule, how does the EC50 (Influenza B virus) read?
A: > 100 µM

Q: And the CC50 at 48 h (in vitro [2])?
A: > 250 µM

Q: And the CC50 at 48 h (in vitro [1])?
A: > 200 µM

Q: And the EC50 (Influenza A virus [3])?
A: > 100 µM

Q: And the EC50 (Influenza A virus [4])?
A: 7.2 µM

Q: For CCC(CC)Oc1ccc(CN[C@H]2CC(C(=O)O)=C[C@@H](OC(CC)CC)[C@@H]2NC(C)=O)cc1, which EC50 (Influenza B virus) is on record?
A: > 100 µM

Q: And the CC50 at 48 h (in vitro [2])?
A: > 250 µM

Q: What about the CC50 at 48 h (in vitro [1]) of the same molecule?
A: > 200 µM

Q: What about the EC50 (Influenza A virus [3]) of the same molecule?
A: > 100 µM

Q: What about the EC50 (Influenza A virus [4]) of the same molecule?
A: 13 µM

Q: With CCc1ccc(CN[C@H]2CC(C(=O)O)=C[C@@H](OC(CC)CC)[C@@H]2NC(C)=O)cc1 as the molecule, how does the CC50 at 48 h (in vitro [1]) read?
A: > 200 µM

Q: For CCC(CC)O[C@@H]1C=C(C(=O)O)C[C@H](NCc2ccc(SC(C)CC)cc2)[C@H]1NC(C)=O (stereo partly drawn), which CC50 at 48 h (in vitro [1]) is on record?
A: > 200 µM
